US20240317736A1, “DEUTERATED DERIVATIVE AS ATX INHIBITOR, AND APPLICATION THEREOF” (Xizang Haisco Pharmaceutical Co., Ltd., priority 2020, published 2024)
Values after ≈ are worked out from the molar mass of the structure shown. Read-outs that look alike come from different tables or passages of the source. Each block holds one compound with its values, some of them ahead of it.

Experiments:
[1] = Dynamic solubility test in water and biological vehicles; format: physicochemical; conditions: 37° C.; for solubility at 1 h / solubility at 2 h / solubility at 4 h / solubility at 24 h: read-out: S: Solubility; for pH: filtrate; for S: Solubility: LOQ: 0.03 μg/mL
Protocol: The dynamic solubility of the crystal form I of compound A (example 11) in water and three biological vehicles was evaluated. […] The samples at each time point were centrifuged (12000 rpm, 5 min) and filtered (0.45 μm PTFE filter), and the HPLC concentration and pH value of the filtrates were measured.
Preparation of simulated gastric fluid (SGF): 0.1 g of NaCl and 0.05 g of Triton X-100 were weighted to a 50 mL volumetric flask, and purified water was added to obtain a clear solution. 67.5 μL of concentrated hydrochloric acid (12 M) was added, and the pH was adjusted to 1.8 with 1 M hydrochloric acid or a 1 M NaOH solution. Purified water was added to a constant volume.
Preparation of simulated intestinal fluid (FaSSIF) in a fasted state: 0.17 g of anhydrous NaH2PO4, 0.021 g of NaOH and 0.31 g of NaCl were weighed to a 50 mL volumetric flask. About 48 mL of purified water was added to obtain a clear solution, and the pH was adjusted to 6.5 with 1 M hydrochloric acid or a 1 M NaOH solution. Purified water was added to a constant volume, and 0.11 g of SIF powder was weighed to obtain a clear solution.
Preparation of simulated intestinal fluid (FeSSIF) in a feeding state: 0.41 mL of glacial acetic acid, 0.20 g of NaOH and 0.59 g of NaCl were weighed to a 50 mL volumetric flask. About 48 mL of purified water was added to obtain a clear solution, and the pH was adjusted to 5.0 with 1 M hydrochloric acid or a 1 M NaOH solution. Purified water was added to a constant volume, and 0.56 g of SIF powder was weighed to obtain a clear solution.

[2] = Stability test of crystal form (purity and crystal form change on storage); format: physicochemical; conditions: for Crystal form change / Purity: 12 days
Protocol: The crystal form I (example 11) was placed at 25° C./60% RH and 40° C./75% RH for 12 days; and then the sample purity was detected, and the crystal form change was observed.

[3] = Dynamic vapor sorption (DVS); format: physicochemical; conditions: 25° C./80% RH
Protocol: A dynamic vapor sorption (DVS) curve is obtained on DVS Intrinsic of Surface Measurement Systems (SMS). The relative humidity at 25° C. is corrected by using the deliquescence points of LiCl, Mg(NO3)2 and KCl.
A free base (9.1 g, 15.3 mmol) of 2-((2-ethyl-6-fluoro-5-(4-(2-(3-hydroxyazetidin-1-yl)-2-oxoethyl)piperazin-1-yl)pyrazolo[1,5-a]pyridin-3-yl)(methyl-d3)amino)-4-(4-fluorophenyl)thiazole-5-carbonitrile (compound A, i.e., compound 3) prepared in example 3 was added to ethanol (50 mL), warmed to 75° C., stirred for 2 h and then dissolved. The mixture was gradually cooled to room temperature under slow stirring, with a large amount of white solids precipitated out, and filtered by suction. The filter cake was washed with ethanol (10 mL), and then dried under vacuum at 40° C. for 24 h to obtain a crystal form I of compound A as a white solid (6.2 g, yield: 68%). […] (initial temperature).

[4] = phase II clinical trial; cited from earlier work

solubility at 1 h ([1]; fasted-state simulated intestinal fluid (FaSSIF), pH 6.5, thermodynamic from solid, vehicle FaSSIF, 1 h): 320 µg/mL (≈ 537 µM) | solubility at 2 h ([1]; fasted-state simulated intestinal fluid (FaSSIF), pH 6.5, thermodynamic from solid, vehicle FaSSIF, 2 h): 270 µg/mL (≈ 453 µM) | solubility at 4 h ([1]; fasted-state simulated intestinal fluid (FaSSIF), pH 6.5, thermodynamic from solid, vehicle FaSSIF, 4 h): 360 µg/mL (≈ 604 µM) | solubility at 24 h ([1]; fasted-state simulated intestinal fluid (FaSSIF), pH 6.5, thermodynamic from solid, vehicle FaSSIF, 24 h): 210 µg/mL (≈ 353 µM) | pH ([1]; vehicle FaSSIF, 1 h): 4.9 | pH ([1]; vehicle FaSSIF, 2 h): 5.0 | pH ([1]; vehicle FaSSIF, 4 h): 4.9 | pH ([1]; vehicle FaSSIF, 24 h): 4.9 | pH ([1]; vehicle FeSSIF, 1 h): 8.5 | pH ([1]; vehicle FeSSIF, 2 h): 8.5 | pH ([1]; vehicle FeSSIF, 4 h): 8.5 | pH ([1]; vehicle FeSSIF, 24 h): 8.5 | pH ([1]; vehicle H2O, 1 h): 2.0 | pH ([1]; vehicle H2O, 2 h): 2.2 | pH ([1]; vehicle H2O, 4 h): 2.0 | pH ([1]; vehicle H2O, 24 h): 2.1 | pH ([1]; vehicle SGF, 1 h): 6.4 | pH ([1]; vehicle SGF, 2 h): 6.5 | pH ([1]; vehicle SGF, 4 h): 6.4 | pH ([1]; vehicle SGF, 24 h): 6.4 | solubility at 1 h ([1]; simulated gastric fluid (SGF), pH 1.8, simulated gastric fluid, thermodynamic from solid, vehicle SGF, 1 h): 15 µg/mL (≈ 25.2 µM) | solubility at 2 h ([1]; simulated gastric fluid (SGF), pH 1.8, simulated gastric fluid, thermodynamic from solid, vehicle SGF, 2 h): 15 µg/mL (≈ 25.2 µM) | solubility at 4 h ([1]; simulated gastric fluid (SGF), pH 1.8, simulated gastric fluid, thermodynamic from solid, vehicle SGF, 4 h): 14 µg/mL (≈ 23.5 µM) | solubility at 24 h ([1]; simulated gastric fluid (SGF), pH 1.8, simulated gastric fluid, thermodynamic from solid, vehicle SGF, 24 h): 14 µg/mL (≈ 23.5 µM) | S: Solubility ([1]; vehicle FeSSIF, 1 h): <LOQ | S: Solubility ([1]; vehicle FeSSIF, 2 h): <LOQ | S: Solubility ([1]; vehicle FeSSIF, 4 h): <LOQ | S: Solubility ([1]; vehicle FeSSIF, 24 h): <LOQ | solubility at 1 h ([1]; water, thermodynamic from solid, vehicle H2O, 1 h): > 5100 µg/mL | solubility at 2 h ([1]; water, thermodynamic from solid, vehicle H2O, 2 h): > 5200 µg/mL | solubility at 4 h ([1]; water, thermodynamic from solid, vehicle H2O, 4 h): > 5300 µg/mL | solubility at 24 h ([1]; water, thermodynamic from solid, vehicle H2O, 24 h): > 5300 µg/mL | Crystal form change ([2]; 25° C./60% RH): No | Purity ([2]; 25° C./60% RH): 99.41 area % | Crystal form change ([2]; 40° C./75% RH): No | Purity ([2]; 40° C./75% RH): 99.44 area % | Initial purity ([2]; before storage): 99.76 area % | water adsorption [3]: 0.20%
Structure (SMILES): [2H]C([2H])([2H])N(c1nc(-c2ccc(F)cc2)c(C#N)s1)c1c(CC)nn2cc(F)c(N3CCN(CC(=O)N4CC(O)C4)CC3)cc12 [Compound A Crystal form I, 2-((2-ethyl-6-fluoro-5-(4-(2-(3-hydroxyazetidin-1-yl)-2-oxoethyl)piperazin-1-yl)pyrazolo[1,5-a]pyridin-3-yl)(methyl-d3)amino)-4-(4-fluorophenyl)thiazole-5-carbonitrile]

Structure (SMILES): CCc1nc2c(C)cc(N3CCN(CC(=O)N4CC(O)C4)CC3)cn2c1N(C)c1nc(-c2ccc(F)cc2)c(C#N)s1 [GLPG-1690]
Curative effect in IPF [4]: good curative effect
